Data on 14 molecules can be found in patent publication US20200286590A1, “SYSTEMS, APPARATUS, AND METHODS FOR GENERATING AND ANALYZING RESISTOME PROFILES” (priority 2014, published 2020).

The test system of test [1] is K. pneumoniae isolate 850707. In words: Minimum inhibitory concentration (MIC) results, isolate 850707. It counts as cell-based. The conditions noted are these: for MIC: Klebsiella pneumoniae, read-out: MIC Value. An excerpt:
(§1) The ability to view additional or varied information may be set by a user as a preference on a customized basis, or the information may be hidden and made available based on a request or selection from a user according to some embodiments. For example, a display interface may be configured such that the user can make a selection on a short form name or symbol to expand a field or open a new window on the display that provides detailed antibiotic resistance data or other diagnostically useful information for a subject sample. For example, in TABLE 17, the differences in minimum inhibitory concentration (MIC) results for two isolate species are provided.
(§2) In TABLE 18, the isolates are numbered and linked to an isolate species (K. pneumoniae); resistome profiles including the species (K1), phenotype (CRE), genotype (IMP and C1), and profile uniqueness identifiers indicating sequential unique patterns compared to an associated database (1-1 and 2-1, respectively); Acuitas MDRO Gene Test results (IMP(A) and CTX-M(A)); and reported genotypes listed in rank order of clinical importance (IMP-26, CTX-M-15, and SHV-28(u), and IMP-4, CTX-M-15, SHV-1(b), and TEM, respectively). The trailing “1s” in the assigned resistome profiles (i.e., the second digit of each profile uniqueness identifier) reflect the first occurrences of these patterns/profiles derived based on data collected from subject sample measurements. In this example, the tests are not designed to detect SHV, TEM, ACT/MIR, CMY-2, DHA-1, ACT-16, or VEB-1.

In test [2] the test system is K. pneumoniae isolate 850793. In words: Minimum inhibitory concentration (MIC) results, isolate 850793. Format: cell-based. The conditions noted are these: for MIC: Klebsiella pneumoniae, read-out: MIC Value.
Text: as §1, §2

Test [3] deals with cephalosporin-resistant (3rd or 4th generation) Gram-negative bacillus. As to conditions: CephR-GNB; Revised (M100-S20); cited from earlier work.
For test [4], the system named is carbapenem-resistant Enterobacteriaceae. As to conditions: CRE, cited from earlier work.
Test [5] concerns D-alanyl-D-lactate variation of NAM/NAG-peptide subunits. The conditions noted are these: D-alanyl-D-lactate versus D-alanyl-D-alanine; cited from earlier work.
The subject of test [6] is D-alanyl-D-serine variation of NAM/NAG-peptide subunits. As to conditions: D-alanyl-D-serine versus D-alanyl-D-alanine; cited from earlier work.
The mark [7] stands for this setting: Isolate No. 850707, K. pneumoniae, IMP-26, CTX-M-15, SHV-28(u).
The mark [8] stands for this setting: Isolate No. 850793, K. pneumoniae, IMP-4, CTX-M-15, SHV-1(b), TEM.

Converted amounts (≈) assume the structure as drawn. Where two headings read alike, the source gives them in different places.

Usually MIC stands for the smallest concentration in the dilution series that meets the test's criterion for growth inhibition. Regarding `NCC[C@H](O)C(=O)N[C@@H]1C[C@H](N)[C@@H](O[C@H]2O[C@H](CN)[C@@H](O)[C@H](O)[C@H]2O)[C@H](O)[C@H]1O[C@H]1O[C@H](CO)[C@@H](O)[C@H](N)[C@H]1O` [Amikacin], the MIC in test [1] (setting [7]) and in test [2] (setting [8]) was 32 µg/mL (≈ 54.6 µM) throughout.
Consider `CC1(C)S[C@@H]2[C@H](NC(=O)[C@H](N)c3ccccc3)C(=O)N2[C@H]1C(=O)O` [Ampicillin], for which the MIC in test [1] (setting [7]) and in test [2] (setting [8]) was 32 µg/mL (≈ 91.6 µM) throughout.
Turning to `CO/N=C(\C(=O)N[C@@H]1C(=O)N2C(C(=O)[O-])=C(C[N+]3(C)CCCC3)CS[C@H]12)c1csc(N)n1` [Cefepime], in test [3], the “MIC breakpoint, Intermediate” value is 16 µg/mL (≈ 33.3 µM); the “MIC breakpoint, Resistant” value is at least 32 µg/mL; the “MIC breakpoint, Susceptible” value is at most 8 µg/mL. Besides, the MIC in test [1] (setting [7]) amounted to 16 µg/mL (≈ 33.3 µM). Also, in test [2] (setting [8]), the MIC turned out to be 16 µg/mL (≈ 33.3 µM).
`CO/N=C(\C(=O)N[C@@H]1C(=O)N2C(C(=O)O)=C(COC(C)=O)CS[C@H]12)c1csc(N)n1` [Cefotaxime]: in test [4] (Revised (M100-S20)), the “MIC breakpoint, Intermediate” value is 2 µg/mL (≈ 4.39 µM); the “MIC breakpoint, Resistant” value is at least 4 µg/mL; the “MIC breakpoint, Susceptible” value is at most 1 µg/mL.
As for `CC(C)(O/N=C(\C(=O)N[C@@H]1C(=O)N2C(C(=O)[O-])=C(C[n+]3ccccc3)CS[C@H]12)c1csc(N)n1)C(=O)O` [Ceftazidime], in test [3], the “MIC breakpoint, Intermediate” value was 8 µg/mL (≈ 14.6 µM); the “MIC breakpoint, Resistant” value is at least 16 µg/mL; the “MIC breakpoint, Susceptible” value is at most 4 µg/mL. The MIC in test [1] (setting [7]) came out at 16 µg/mL (≈ 29.3 µM). Moreover, the MIC in test [2] (setting [8]) came out at 128 µg/mL (≈ 234 µM). Further, in test [4] (Revised (M100-S20)), the “MIC breakpoint, Intermediate” value was 8 µg/mL (≈ 14.6 µM); the “MIC breakpoint, Resistant” value was at least 16 µg/mL; the “MIC breakpoint, Susceptible” value is at most 4 µg/mL.
As for `CO/N=C(\C(=O)N[C@@H]1C(=O)N2C(C(=O)O)=C(CSc3nc(=O)c(=O)[nH]n3C)CS[C@H]12)c1csc(N)n1` [Ceftriaxone], in test [4] (Revised (M100-S20)), the “MIC breakpoint, Intermediate” value was 2 µg/mL (≈ 3.61 µM); the “MIC breakpoint, Resistant” value was at least 4 µg/mL; the “MIC breakpoint, Susceptible” value was at most 1 µg/mL.
Consider `C[C@@H](O)[C@H]1C(=O)N2C(C(=O)O)=C(S[C@@H]3CN[C@H](CNS(N)(=O)=O)C3)[C@H](C)[C@H]12` [Doripenem], for which the MIC in test [1] (setting [7]) was found to be 32 µg/mL (≈ 76.1 µM). Further, the MIC in test [2] (setting [8]) came out at 4 µg/mL (≈ 9.51 µM). Besides, in test [4] (Current Breakpoints (M100-S22)), the “MIC breakpoint, Intermediate” value is 2 µg/mL (≈ 4.76 µM); the “MIC breakpoint, Resistant” value was at least 4 µg/mL; the “MIC breakpoint, Susceptible” value was at most 1 µg/mL.
Regarding `C[C@@H](O)[C@H]1C(=O)N2C(C(=O)O)=C(S[C@@H]3CN[C@H](C(=O)Nc4cccc(C(=O)O)c4)C3)[C@H](C)[C@H]12` [Ertapenem], the MIC in test [1] (setting [7]) was 6 µg/mL (≈ 12.6 µM). Also, the MIC in test [2] (setting [8]) was 1 µg/mL (≈ 2.1 µM). In test [4] (Current Breakpoints (M100-S22)), the “MIC breakpoint, Intermediate” value is 1 µg/mL (≈ 2.1 µM); the “MIC breakpoint, Resistant” value is at least 2 µg/mL; the “MIC breakpoint, Susceptible” value is at most 0.5 µg/mL.
Take `C[C@@H](O)[C@H]1C(=O)N2C(C(=O)O)=C(SCCN=CN)C[C@H]12` [Imipenem]: the values for the MIC in test [1] (setting [7]) and in test [2] (setting [8]) were 2 µg/mL (≈ 6.68 µM) and 8 µg/mL (≈ 26.7 µM), respectively.
Turning to `C[C@H]1COc2c(N3CCN(C)CC3)c(F)cc3c(=O)c(C(=O)O)cn1c23` [Levofloxacin], the MIC amounted to 1 µg/mL (≈ 2.77 µM) in test [1] (setting [7]) and 0.5 µg/mL (≈ 1.38 µM) in test [2] (setting [8]).
For `C[C@@H](O)[C@H]1C(=O)N2C(C(=O)O)=C(S[C@@H]3CN[C@H](C(=O)N(C)C)C3)[C@H](C)[C@H]12` [Meropenem], the MIC in test [1] (setting [7]) was 32 µg/mL (≈ 83.4 µM). In addition, in test [2] (setting [8]), the MIC worked out at 8 µg/mL (≈ 20.9 µM). Moreover, in test [4] (Current Breakpoints (M100-S22)), the “MIC breakpoint, Intermediate” value was 2 µg/mL (≈ 5.22 µM); the “MIC breakpoint, Resistant” value was at least 4 µg/mL; the “MIC breakpoint, Susceptible” value is at most 1 µg/mL.
For the molecule `CN(C)c1cc(NC(=O)CNC(C)(C)C)c(O)c2c1C[C@H]1C[C@H]3[C@H](N(C)C)C(O)=C(C(N)=O)C(=O)[C@@]3(O)C(O)=C1C2=O` [Tigecycline], the results for the MIC in test [1] and in test [2] were 2 µg/mL (≈ 3.41 µM) and 1 µg/mL (≈ 1.71 µM), respectively.
For the molecule `CN[C@H](CC(C)C)C(=O)N[C@H]1C(=O)N[C@@H](CC(N)=O)C(=O)N[C@H]2C(=O)N[C@H]3C(=O)N[C@H](C(=O)N[C@H](C(=O)O)c4cc(O)cc(O)c4-c4cc3ccc4O)[C@H](O)c3ccc(c(Cl)c3)Oc3cc2cc(c3O[C@@H]2O[C@H](CO)[C@@H](O)[C@H](O)[C@H]2O[C@H]2C[C@](C)(N)[C@H](O)[C@H](C)O2)Oc2ccc(cc2Cl)[C@H]1O` [vancomycin], the decrease in affinity in test [5] is 1000 fold. Besides, the “loss of affinity between vancomycin and the peptide” value in test [6] is “six-fold”.
On to Colistin/TWEEN, for which the “MIC Value” in test [1] (setting [7]) and in test [2] (setting [8]) was 0.12 µg/mL throughout.
